Measured values reported in patent publication US20230346827A1 (priority 2020, published 2023).

Experiments:
[1] = molecular target: oligomeric amyloid-β / PrP^c interaction (Homo sapiens, UniProt P04156); format: binding
ALS patients = test: ALSFRS-R / clinical observation in ALS patients (Example 15); format: in vivo, human; conditions: five-week treatment period
Description: Dextran sulfate (Tikomed AB, Viken, Sweden, WO 2016/076780) was administered at 1 mg/kg by […] subcutaneous injection once a week for five weeks to 13 human patients suffering from ALS.
ALSFRS-R was assessed pre-treatment and weekly thereafter for the 5 treatment weeks and for the visits at the follow-up period.

blood coagulation (APTT) = test: Activated partial thromboplastin time (APTT) in blood of ALS patients after s.c. LMW-DS 1 mg/kg (Example 5); format: in vivo, human
Description: This was a single-centre, open single-arm study where the safety, tolerability and efficacy of subcutaneous (s.c.) administered LMW-DS was evaluated in patients with ALS. There were 10 planned visits to the clinic: 1 screening visit divided in 2 parts (Visit 1a and Visit 1b), 5 IMP administration visits (Visit 2 to Visit 6) and 3 follow-up visits (Visit 7 to Visit 9). Each individual patient’s study participation was planned to be approximately 4 months, including the screening and follow-up visits.
The active pharmaceutical ingredient of the IMP was a low molecular weight dextran sulfate (LMW-DS), (ILB®, Tikomed AB, Viken, Sweden, WO 2016/076780). LMW-DS was prepared as a solution for s.c. injection and consisted of 20 mg/mL LMW-DS and 9 mg/mL NaCl. Each glass vial contained 10 mL. The dose administered depended on the patient’s body weight at Visit 2, prior to the first LMW-DS administration. LMW-DS was injected s.c. on alternating sides of the abdomen, thigh or the buttock (in that order of priority). Five injections of 1 mg/kg, with 1 week dosing interval, were administered. Changes in activated partial thromboplastin time (APTT) were recorded from blood samples taken at each visit.

[2] = system: HUVEC + (IL-4 and histamine); test: BioMAP 4H system; format: cell-based, human; conditions: annotated relative to vehicle controls
Source text: (§1) Cell types and stimuli used in each system are as follows: 3C system [HUVEC + (IL-1β, TNFα and IFNy)], 4H system [HUVEC + (IL-4 and histamine)], LPS system [PBMC and HUVEC + LPS (TLR4 ligand)], SAg system [PBMC and HUVEC + TCR ligands], BT system [CD19+ B cells and PBMC + (α-IgM and TCR ligands)], BF4T system [bronchial epithelial cells and HDFn + (TNFα and IL-4)], BE3C system [bronchial epithelial cells + (IL-1β, TNFα and IFNy)], CASM3C system [coronary artery smooth muscle cells + (IL-1 β, TNFα and IFNy)], HDF3CGF system [HDFn + (IL-1β, TNFα, IFNy, EGF, bFGF and PDGF-BB)], KF3CT system [keratinocytes and HDFn + (IL-1β, TNFα, IFNy and TGFβ)], MyoF system [differentiated lung myofibroblasts + (TNFα and TGFβ)] and Mphg system [HUVEC and M1 macrophages + Zymosan (TLR2 ligand)].
(§2) Systems are derived from either single cell types or co-culture systems. Adherent cell types are cultured in 96 or 384-well plates until confluence, followed by the addition of PBMC (SAg and LPS systems). […] Soluble factors from supernatants are quantified using either HTRF® detection, bead-based multiplex immunoassay or capture ELISA. Overt adverse effects of test agents on cell proliferation and viability (cytotoxicity) are detected by sulforhodamine B (SRB) staining, for adherent cells, and alamarBlue® reduction for cells in suspension. […]

[3] = system: bronchial epithelial cells and HDFn + (TNFα and IL-4); test: BioMAP BF4T system; format: cell-based, human; conditions: annotated relative to vehicle controls
Source text: as §1, §2

[4] = system: HUVEC + (IL-1β, TNFα and IFNy); test: BioMAP 3C system; format: cell-based, human; conditions: annotated relative to vehicle controls
Source text: as §1, §2

[5] = system: keratinocytes and HDFn + (IL-1β, TNFα, IFNy and TGFβ); test: BioMAP KF3CT system; format: cell-based, human; conditions: annotated relative to vehicle controls
Source text: as §1, §2

sodium salt of dextran sulfate [LMW-DS]
Competable binding (%) [1]: 85±4%
Hill coefficient [1]: 1.00±0.21
IC50 [1]: 0.42 ± 0.16 µg/mL
severe bulbar paresis (two patients) (ALS patients): almost complete resolution
APTT relative change from baseline (blood coagulation (APTT); 2 hours post-dosing): +33.5%
APTT relative change from baseline (blood coagulation (APTT); 2.5 hours post-dosing): +26.5%
time at which APTT values returned to pre-dose levels (blood coagulation (APTT); post dosing): 6 h
Increased biomarker activity [2]: uPAR
Increased biomarker activity [3]: Eot3
Increased biomarker activity [4]: IL-8
Decreased biomarker activity [5]: MCP-1
Increased biomarker activity [5]: IL-8
